Assay results as given in patent publication US20210395239A1 (Hoffmann-La Roche Inc., priority 2018, published 2021).

These compounds were tested against T1, human TLR8 (Homo sapiens, UniProt Q9NR97) (assay: HEK293-Blue-hTLR-8 cells assay (SEAP reporter, R848 stimulation)). Conditions: HEK293-Blue-hTLR8 cells, R848, 20 hrs; read-out: HEK/hTLR8 IC50.
T1 construct: host or cells: HEK293 (HEK-Blue hTLR8)
T1 sequence (Q9NR97 27-1041): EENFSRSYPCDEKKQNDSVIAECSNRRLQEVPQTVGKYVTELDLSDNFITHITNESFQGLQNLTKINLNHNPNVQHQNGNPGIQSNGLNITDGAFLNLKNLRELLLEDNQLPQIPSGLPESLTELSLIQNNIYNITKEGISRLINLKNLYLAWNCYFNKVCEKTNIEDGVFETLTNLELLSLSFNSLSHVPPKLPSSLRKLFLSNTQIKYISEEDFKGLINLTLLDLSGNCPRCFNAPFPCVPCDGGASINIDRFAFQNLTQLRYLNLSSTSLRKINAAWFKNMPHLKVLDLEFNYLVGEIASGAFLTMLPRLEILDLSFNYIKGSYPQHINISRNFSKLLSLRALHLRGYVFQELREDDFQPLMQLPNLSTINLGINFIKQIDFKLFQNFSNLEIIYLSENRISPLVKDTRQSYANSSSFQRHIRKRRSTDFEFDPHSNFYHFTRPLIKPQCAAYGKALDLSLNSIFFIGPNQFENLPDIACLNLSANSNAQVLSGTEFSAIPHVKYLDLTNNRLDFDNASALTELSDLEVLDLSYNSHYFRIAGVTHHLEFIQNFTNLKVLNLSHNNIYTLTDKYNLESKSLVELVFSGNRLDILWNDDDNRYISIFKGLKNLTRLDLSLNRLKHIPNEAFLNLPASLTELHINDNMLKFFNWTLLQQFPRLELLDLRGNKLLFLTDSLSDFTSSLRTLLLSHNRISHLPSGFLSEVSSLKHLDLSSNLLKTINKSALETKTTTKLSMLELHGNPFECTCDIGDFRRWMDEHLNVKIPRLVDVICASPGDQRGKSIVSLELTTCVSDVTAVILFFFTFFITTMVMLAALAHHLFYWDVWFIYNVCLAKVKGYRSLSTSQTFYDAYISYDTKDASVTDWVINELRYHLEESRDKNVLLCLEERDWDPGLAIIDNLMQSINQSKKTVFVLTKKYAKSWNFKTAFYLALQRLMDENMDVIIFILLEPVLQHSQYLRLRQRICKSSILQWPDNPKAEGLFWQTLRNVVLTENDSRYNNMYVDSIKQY
Assay type: cell-based
Text: HEK293-Blue-hTLR-8 Cells Assay:
A stable HEK293-Blue-hTLR-8 cell line was purchased from InvivoGen (Cat. #: hkb-ht1r8, San Diego, Calif., USA). These cells were originally designed for studying the stimulation of human TLR8 by monitoring the activation of NF-κB. A SEAP (secreted embryonic alkaline phosphatase) reporter gene was placed under the control of the IFN-β minimal promoter fused to five NF-κB and AP-1-binding sites. The SEAP was induced by activating NF-κB and AP-1 via stimulating HEK-Blue hTLR8 cells with TLR8 ligands. Therefore the reporter expression was declined by TLR8 antagonist under the stimulation of a ligand, such as R848, for incubation of 20 hrs. The cell culture supernatant SEAP reporter activity was determined using QUANTI-Blue™ kit (Cat. #: rep-qb1, Invivogen, San Diego, Ca, USA) at a wavelength of 640 nm, a detection medium that turns purple or blue in the presence of alkaline phosphatase.
HEK293-Blue-hTLR8 cells were incubated at a density of 250,000˜450,000 cells/mL in a volume of 170 μL in a 96-well plate in Dulbecco's Modified Eagle's medium (DMEM) containing 4.5 g/L glucose, 50 U/mL penicillin, […], […], 2 mM L-glutamine, 10% (v/v) heat-inactivated fetal bovine serum with addition of 20 μL test compound in a serial dilution in the presence of final DMSO at 1% and 10 μL of 60 uM R848 in above DMEM, perform incubation under 37° C. in a CO2 incubator for 20 hrs. Then 20 μL of the supernatant from each well was incubated with 180 μL Quanti-blue substrate solution at 37° C. for 2 hrs and the absorbance was read at 620˜655 nm using a spectrophotometer. The signaling pathway that TLR8 activation leads to downstream NF-κB activation has been widely accepted, and therefore similar reporter assay was modified for evaluating TLR8 antagonist.

**Q.** Which IC50 does the source give for `C[C@@H]1CN(c2ccc(C#N)c3nccnc23)C[C@H](CN2CCN(c3nccc(N4CC(N)C4)n3)CC2)O1` [Example 118, 8-[(2S,6R)-2-[[4-[4-(3-aminoazetidin-1-yl)pyrimidin-2-yl]piperazin-1-yl]methyl]-6-methyl-morpholin-4-yl]quinoxaline-5-carbonitrile] here?
**A.** 1 nM

**Q.** How did the IC50 turn out when `CO[C@@H]1CN(c2cc(C)nc(N3CCN(C[C@H]4CN(c5ccc(C#N)c6nccnc56)C[C@@H](C)O4)CC3)n2)C[C@@H]1N` [Example 120, 8-[(2S,6R)-2-[[4-[4-[(3S,4R)-3-amino-4-methoxy-pyrrolidin-1-yl]-6-methyl-pyrimidin-2-yl]piperazin-1-yl]methyl]-6-methyl-morpholin-4-yl]quinoxaline-5-carbonitrile] was run?
**A.** 1 nM

**Q.** Which IC50 does the source give for `CO[C@@H]1CN(c2cc(C)nc(N3CCN(C[C@H]4CN(c5ccc(C#N)c6nccnc56)C[C@@H](C)O4)CC3)n2)C[C@H]1N` [Example 121, 8-[(2S,6R)-2-[[4-[4-[(3R,4R)-3-amino-4-methoxy-pyrrolidin-1-yl]-6-methyl-pyrimidin-2-yl]piperazin-1-yl]methyl]-6-methyl-morpholin-4-yl]quinoxaline-5-carbonitrile] here?
**A.** 1 nM

**Q.** With `CO[C@H]1CN(c2cc(C)nc(N3CCN(C[C@H]4CN(c5ccc(C#N)c6nccnc56)C[C@@H](C)O4)CC3)n2)C[C@H]1N` [Example 122, 8-[(2S,6R)-2-[[4-[4-[(3R,4S)-3-amino-4-methoxy-pyrrolidin-1-yl]-6-methyl-pyrimidin-2-yl]piperazin-1-yl]methyl]-6-methyl-morpholin-4-yl]quinoxaline-5-carbonitrile] as the compound, how does the IC50 read?
**A.** 1 nM

**Q.** With `Cc1cc(N2CC(N)C2)nc(N2CCN(C[C@H]3CN(c4ccc(C#N)c5nccnc45)C[C@@H](C)O3)CC2)n1` [Example 123, 8-[(2S,6R)-2-[[4-[4-(3-aminoazetidin-1-yl)-6-methyl-pyrimidin-2-yl]piperazin-1-yl]methyl]-6-methyl-morpholin-4-yl]quinoxaline-5-carbonitrile] as the compound, how does the IC50 read?
**A.** 1 nM

**Q.** With `Cc1cc(N2C[C@@H](N)[C@](C)(O)C2)nc(N2CCN(C[C@H]3CN(c4ccc(C#N)c5nccnc45)C[C@@H](C)O3)CC2)n1` [Example 125, 8-[(2S,6R)-2-[[4-[4-[(3R,4R)-4-amino-3-hydroxy-3-methyl-pyrrolidin-1-yl]-6-methyl-pyrimidin-2-yl]piperazin-1-yl]methyl]-6-methyl-morpholin-4-yl]quinoxaline-5-carbonitrile] as the compound, how does the IC50 read?
**A.** 2 nM

**Q.** Which IC50 does the source give for `Cc1ccc(N2C[C@H](CN3CCN(c4ccnc(N5CC6(CNCCO6)C5)n4)CC3)O[C@H](C)C2)c2nccnc12` [Example 126, 2-[4-[4-[[(2S,6R)-6-methyl-4-(8-methylquinoxalin-5-yl)morpholin-2-yl]methyl]piperazin-1-yl]pyrimidin-2-yl]-5-oxa-2,8-diazaspiro[3.5]nonane] here?
**A.** 6 nM

**Q.** How did the IC50 turn out when `Cc1ccc(N2C[C@H](CN3CCN(c4ccnc(N5CCN[C@@H](C)C5)n4)CC3)O[C@H](C)C2)c2nccnc12` [Example 127, (2R,6S)-2-methyl-6-[[4-[2-[(3S)-3-methylpiperazin-1-yl]pyrimidin-4-yl]piperazin-1-yl]methyl]-4-(8-methylquinoxalin-5-yl)morpholine] was run?
**A.** 9 nM

**Q.** `Cc1ccc(N2C[C@H](CN3CCN(c4ccnc(N5CCN[C@H](C)C5)n4)CC3)O[C@H](C)C2)c2nccnc12` [Example 128, (2R,6S)-2-methyl-6-[[4-[2-[(3R)-3-methylpiperazin-1-yl]pyrimidin-4-yl]piperazin-1-yl]methyl]-4-(8-methylquinoxalin-5-yl)morpholine] was tested. Which IC50 did it give?
**A.** 12 nM

**Q.** With `Cc1ccc(N2C[C@H](CN3CCN(c4ccnc(N5C[C@H]6NCCO[C@@H]6C5)n4)CC3)O[C@H](C)C2)c2nccnc12` [Example 129, (4aR,7aR)-6-[4-[4-[[(2S,6R)-6-methyl-4-(8-methylquinoxalin-5-yl)morpholin-2-yl]methyl]piperazin-1-yl]pyrimidin-2-yl]-3,4,4a,5,7,7a-hexahydro-2H-pyrrolo[3,4-b][1,4]oxazine] as the compound, how does the IC50 read?
**A.** 7 nM

**Q.** `Cc1ccc(N2C[C@H](CN3CCN(c4ccnc(N5CC(N)C5)n4)CC3)O[C@H](C)C2)c2nccnc12` [Example 130, 1-[4-[4-[[(2S,6R)-6-methyl-4-(8-methylquinoxalin-5-yl)morpholin-2-yl]methyl]piperazin-1-yl]pyrimidin-2-yl]azetidin-3-amine] was tested. Which IC50 did it give?
**A.** 8 nM

**Q.** With `[2H]c1ccc2c(N3C[C@H](CN4CCN(c5nc(OC)cc(N6CC(C)(N)C6)n5)CC4)O[C@H](C)C3)ccc(C#N)c2n1` [Example 131, 5-[(2S,6R)-2-[[4-[4-(3-amino-3-methyl-azetidin-1-yl)-6-methoxy-pyrimidin-2-yl]piperazin-1-yl]methyl]-6-methyl-morpholin-4-yl]-2-deuterio-quinoline-8-carbonitrile] as the compound, how does the IC50 read?
**A.** 4 nM

**Q.** For `[2H]c1ccc2c(N3C[C@H](CN4CCN(c5cnc(N6CC(C)(N)C6)cc5C)CC4)O[C@H](C)C3)ccc(C#N)c2n1` [Example 133, 5-[(2S,6R)-2-[[4-[6-(3-amino-3-methyl-azetidin-1-yl)-4-methyl-3-pyridyl]piperazin-1-yl]methyl]-6-methyl-morpholin-4-yl]-2-deuterio-quinoline-8-carbonitrile], which IC50 is on record?
**A.** 17 nM

**Q.** `[2H]c1ccc2c(N3C[C@H](CN4CCN(c5nc(C)cc(N6CC(C)(N)C6)n5)CC4)O[C@H](C)C3)ccc(C#N)c2n1` [Example 135, 5-[(2S,6R)-2-[[4-[4-(3-amino-3-methyl-azetidin-1-yl)-6-methyl-pyrimidin-2-yl]piperazin-1-yl]methyl]-6-methyl-morpholin-4-yl]-2-deuterio-quinoline-8-carbonitrile] was tested. Which IC50 did it give?
**A.** 1 nM

**Q.** `[2H]c1ccc2c(N3C[C@H](CN4CCN(c5nc(C)cc(N6CC(N)C6)n5)CC4)O[C@H](C)C3)ccc(C#N)c2n1` [Example 136, 5-[(2S,6R)-2-[[4-[4-(3-aminoazetidin-1-yl)-6-methyl-pyrimidin-2-yl]piperazin-1-yl]methyl]-6-methyl-morpholin-4-yl]-2-deuterio-quinoline-8-carbonitrile] was tested. Which IC50 did it give?
**A.** 1 nM

**Q.** With `[2H]c1ccc2c(N3C[C@H](CN4CCN(c5ccc(N6CC(C)(N)C6)nc5C)CC4)O[C@H](C)C3)ccc(C#N)c2n1` [Example 137, 5-[(2S,6R)-2-[[4-[6-(3-amino-3-methyl-azetidin-1-yl)-2-methyl-3-pyridyl]piperazin-1-yl]methyl]-6-methyl-morpholin-4-yl]-2-deuterio-quinoline-8-carbonitrile] as the compound, how does the IC50 read?
**A.** 11 nM

**Q.** With `[2H]c1ccc2c(N3C[C@H](CN4CC(c5ccc(N6CC(C)(N)C6)nc5)C4)O[C@H](C)C3)ccc(C#N)c2n1` [Example 138, 5-[(2S,6R)-2-[[3-[6-(3-amino-3-methyl-azetidin-1-yl)-3-pyridyl]azetidin-1-yl]methyl]-6-methyl-morpholin-4-yl]-2-deuterio-quinoline-8-carbonitrile] as the compound, how does the IC50 read?
**A.** 19 nM

**Q.** How did the IC50 turn out when `[2H]c1ccc2c(N3C[C@H](CN4CCN(c5ncc(N6CC(C)(N)C6)cc5C)CC4)O[C@H](C)C3)ccc(C#N)c2n1` [Example 139, 5-[(2S,6R)-2-[[4-[5-(3-amino-3-methyl-azetidin-1-yl)-3-methyl-2-pyridyl]piperazin-1-yl]methyl]-6-methyl-morpholin-4-yl]-2-deuterio-quinoline-8-carbonitrile] was run?
**A.** 13 nM
